This note sets out measurements from patent US12514849B2, “Pharmaceutical formulations containing relacorilant, a heteroaryl-ketone fused azadecalin compound” (Corcept Therapeutics Incorporated, priority 2018, dated 2026).

Series [1] is described as follows: Compatibility/stability of relacorilant with excipients at 40° C./75% RH and 60° C. Format: physicochemical. The procedure:
The stability of relacorilant in a series of potential excipients was also examined for two weeks at 40° C. at 75% relative humidity, and at 60° C., including in formulations of Table I. The predominant degradation path was through formation of the aromatic decarbonylation of relacorilant with both propylene glycol monocaprylate and lauroyl polyoxyl-32 glyceride excipients. Relacorilant stability was good with both these excipients.

A short description of series [2]: Stability of relacorilant to pH, moisture and light. Format: physicochemical. As for the experimental part:
Relacorilant stability and compatibility with various excipients was tested and suitable excipients were identified. […] Lauryl polyoxyl-32 glycerides (Gelucire 44/14, available from Gattefosse USA, New Jersey) in place of the stearoyl polyoxyl-32 glycerides were then used. […] This formulation was tested for stability. Stability testing included testing of some formulations for up to one year.

For `Cn1cc(S(=O)(=O)N2CCC3=Cc4c(cnn4-c4ccc(F)cc4)C[C@]3(C(=O)c3cc(C(F)(F)F)ccn3)C2)cn1` [Relacorilant, (R)-(1-(4-fluorophenyl)-6-((1-methyl-1H-pyrazol-4-yl)sulfonyl)-4,4a,5,6,7,8-hexahydro-1H-pyrazolo[3,4-g]isoquinolin-4a-yl)(4-(trifluoromethyl)pyridin-2-yl)methanone], the “purity (% relacorilant of relacorilant plus relacorilant-derived impurities)” value in series [1] (in lauroyl polyoxyl-32 glycerides, 40° C./75% RH, 1 week) is 97.64%; in series [1] (in lauroyl polyoxyl-32 glycerides, 40° C./75% RH, 2 week), 97.55%; in series [1] (in lauroyl polyoxyl-32 glycerides, 60° C., 1 week) it was 97.22%; in series [1] (in lauroyl polyoxyl-32 glycerides, 60° C., 2 week), 96.77%; in series [1] (in lauroyl polyoxyl-32 glycerides, Control), 98.09%; in series [1] (in lauroyl polyoxyl-32 glycerides, T0) it was 98.13%. For the same compound, the “purity (% relacorilant of relacorilant plus relacorilant-derived impurities)” value is 98.00% in series [1] (in propylene glycol monocaprylate, 40° C./75% RH, 1 week); 97.84% in series [1] (in propylene glycol monocaprylate, 40° C./75% RH, 2 week); 97.51% in series [1] (in propylene glycol monocaprylate, 60° C., 1 week); 96.65% in series [1] (in propylene glycol monocaprylate, 60° C., 2 week); 98.03% in series [1] (in propylene glycol monocaprylate, Control); 98.09% in series [1] (in propylene glycol monocaprylate, T0). In series [2], the “sensitivity to moisture and light” value is “sensitive to both moisture and light”. For the same compound, the “stability in acidic aqueous solutions” value in series [2] (acidic aqueous solutions) is “stable”. The “stability under basic conditions” value in series [2] (basic conditions) was “sensitive to basic conditions”. In addition, the “stability over time in formulations having basic pH” value in series [2] (basic pH, particularly pH greater than 8, versus neutral or acidic pH) is “significantly less stable”. In addition, the “stability in neutral solutions” value in series [2] (neutral solutions at elevated temperatures) was “degrade over time”.
